In publication PMC8997399, “High-Throughput Screening to Identify Inhibitors of Plasmodium falciparum Importin α” (Cells, 2022):
Where “and” joins values, the source holds several entries; their conditions need not be identical. Identical values can stand only once. Like-named read-outs stand apart in the source and are kept apart here.

How the values were obtained:
HFF cells = assay: MTT assay for host cell cytotoxicity; format: cell-based, human
Method: The MTT assay was used to measure the cytotoxicity of the small molecules against the HFF cells as described. Briefly, freshly confluent HFF cells in a 96-well culture plate were treated with increasing concentrations of compounds for 48 h, prior to the MTT assay.

[1] = tested on: T. gondii RH strain expressing the luciferase reporter (RH-Fluc); assay: T. gondii tachyzoite growth inhibition assay (RH-Fluc luciferase); format: cell-based, Toxoplasma gondii; conditions: for T. gondii parasite killing: at 2 µM or less (Figure 7); for IC50: read-out: IC50 T. gondii
Description: T. gondii RH strain expressing the luciferase reporter (RH-Fluc) was derived to assess the effect of the inhibitors on growth. Briefly, plasmid pCTG-EGFP [42] was modified by replacing the coding sequence of EGFP with that of the firefly luciferase reporter, using restriction enzymes BglII and PstI (Thermo Fisher Scientific, Waltham, MA, USA). The resultant plasmid, pCTG-Fluc, expressing firefly luciferase constitutively under the control of the T. gondii TubulinA promoter, was electroporated into the T. gondii RH strain [43, 44] using a Bio-Rad GenePulser Xcell system (1500 V, 50 Ω and 25 µF) along with restriction enzyme NotI to initiate RE-Mediated Integration (REMI) of the linearized plasmid into the genome. The resultant stable T. gondii line expressing the luciferase reporter was selected for resistance to 20 µM chloramphenicol (encoded by the plasmid pCTG), and dilution cloning was performed to ultimately identify the clone (RH-Fluc) with the highest luciferase activity (c. 4 × 10^7 RLU from 10^7 parasites) used for growth assays. T. gondii tachyzoites were maintained and cultured at 37 °C in 5% CO2 in a humidified incubator in primary human foreskin fibroblasts (HFF, ATCC); HFF cells were maintained in Dulbecco’s modified Eagle medium (DMEM) (Gibco^TM, Waltham, MA, USA) supplemented with 3.7 g/L sodium bicarbonate and 2.38 g/L HEPES, 10% Cosmic Calf serum (Hyclone^TM, Logan, UT, USA) and 20 mg/L gentamicin [47, 48].
Growth inhibition was assessed by luminescence measurements as described. Briefly, 100 μL of culture medium with or without inhibitors was added to confluent monolayers of HFF cells grown in 96-well treated culture plates (Eppendorf, Hamburg, Germany), followed by 100 µL of DMEM containing 5000 parasites. After 48 h, 150 µL of the culture media was discarded from each well without aspirating any parasites, and 10 µL lysis buffer was added to lyse the parasites, followed by 50 μL of 2× luciferase assay reagent (Promega, Madison, WI, USA). Luminescence was measured directly for 10 s using a Varioskan™ LUX multimode microplate reader (Thermo Fisher Scientific, Waltham, MA, USA).

P. falciparum = conditions: cited from earlier work
MmIMPα/β heterodimer = biological target: T1, MmIMPα/β heterodimer (Mus musculus, UniProt P52293); assay: AlphaScreen binding assay, MmIMPα/β:T-ag-NLS-GFP interaction; conditions: compounds at 10 μM, MmIMPα/β (5 nM):T-ag-NLS-GFP (30 nM), relative to 1% DMSO control
T1 construct: GST; made in house
Method: (§1) PfIMPα, TgIMPα, Mus musculus IMPα (MmIMPα), ΔIBBMmIMPα, and β1 (MmIMPβ) GST fusion proteins were expressed and purified essentially as previously. His-tagged TGS1-NLS-GFP, PfIMPα and TgIMPα proteins were purified using Ni^2+-affinity chromatography as described. His-tagged SV40 T-ag-NLS-GFP was purified as previously. Biotinylation of GST-tagged proteins was carried out using the Sulfo-NHS-Biotin reagent (Pierce, Rockford, IL, USA) as described previously. AlphaScreen binding assay was performed as described previously.
(§2) Plates were read for an Alphascreen signal on an Envision plate reader (PerkinElmer, Waltham, MA, USA), with signals from the negative control wells (no bait control) on each plate subtracted.

T. gondii tachyzoites = conditions: cited from earlier work
MmΔIBBIMPα = biological target: T2, MmΔIBBIMPα (Mus musculus, UniProt P52293); assay: AlphaScreen binding assay, MmΔIBBIMPα:T-ag-NLS-GFP interaction
T2 construct: made in house
Method: as §1, §2

PfIMPα = PfIMPα (Plasmodium falciparum, UniProt Q8IAW0); format: binding
Sequence of PfIMPα (Q8IAW0 entry or part of it): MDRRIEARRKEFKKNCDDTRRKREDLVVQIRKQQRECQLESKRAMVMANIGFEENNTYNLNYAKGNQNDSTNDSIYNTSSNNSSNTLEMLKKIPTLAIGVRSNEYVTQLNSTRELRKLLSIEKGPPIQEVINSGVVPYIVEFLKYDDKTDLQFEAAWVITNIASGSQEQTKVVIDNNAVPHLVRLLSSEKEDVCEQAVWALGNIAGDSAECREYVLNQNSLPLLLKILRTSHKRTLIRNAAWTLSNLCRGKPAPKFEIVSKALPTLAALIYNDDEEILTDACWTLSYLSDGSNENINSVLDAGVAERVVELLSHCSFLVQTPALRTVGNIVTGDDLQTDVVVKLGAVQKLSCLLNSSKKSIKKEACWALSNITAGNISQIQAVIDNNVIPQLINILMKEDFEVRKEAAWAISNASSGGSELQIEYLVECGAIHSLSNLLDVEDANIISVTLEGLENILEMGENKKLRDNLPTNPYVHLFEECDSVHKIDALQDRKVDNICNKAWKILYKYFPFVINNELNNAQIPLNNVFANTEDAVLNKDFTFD

[2] = 10 μM, 48 h, HFF cells infected with RH-Fluc (Figure 5B)
[3] = parasites in culture, 48 h, pooled, mean ± SD (n = 3) (Table 3)
[4] = single typical experiment (Figure 7), 48 h
[5] = compounds at 10 μM, ΔIBBMmIMPα (5 nM):T-ag-NLS-GFP (30 nM), relative to 1% DMSO control
[6] = pooled, mean ± SEM (n = 3), read-out: IC50 MmΔIBBIMPα:T-ag-NLS
[7] = single experiment (Figure 3), IMPα 5 nM, NLS 30 nM, read-out: IC50 MmΔIBBIMPα:T-ag-NLS-GFP
[8] = pooled, mean ± SEM (n = 3), read-out: IC50 PfIMPα:TGS1-NLS-GFP

Structure (SMILES) | reduction in luciferase activity, indicative of T. gondii growth inhibition [1, 2] [%] | T. gondii parasite killing [1] [%] | IC50 [1, 3] [nM] | IC50 [1, 4] [nM] | % Inhibition of IMPα-NLS Interaction MmΔIBBIMPα (MmΔIBBIMPα; [5]) [%] | IC50 (MmΔIBBIMPα; [6]) | IC50 (MmΔIBBIMPα; [7]) [nM] | IC50 (PfIMPα; [8]) | further results
CC(=O)OC[C@H]1O[C@@H]([S-])[C@H](OC(C)=O)[C@@H](OC(C)=O)[C@@H]1OC(C)=O.CCP(CC)CC.[Au+] [auranofin] | > 50 | ≥ 60 | 2300 ± 800 | 1900 | 91 | 60 ± 10 nM | 50 | 70 ± 10 nM | CC50 (HFF cells; MTT assay, 48 h, mean ± SD (n = 2), read-out: CC50 HFF cells): 5100 nM; cytotoxicity to HFF cells (HFF cells; at concentrations < c. 5 µM): essentially absent; activity against P. falciparum (P. falciparum): possess activity; % Inhibition of IMPα-NLS Interaction MmIMPα/β (MmIMPα/β heterodimer): 100%; activity against cultured T. gondii (T. gondii tachyzoites): possess activity; IC50 (PfIMPα; range over PfIMPα, TgIMPα and MmΔIBBIMPα interactions, read-out: IC50 values of all three IMPα:NLS interactions): 60 to 80 nM; IC50 (PfIMPα; single experiment (Figure 3), IMPα 5 nM, NLS 30 nM, read-out: IC50 PfIMPα:TGS1-NLS-GFP): 80 nM
O=C(/C=C/c1ccc(O)c(O)c1)OCCc1ccccc1 [CAPE, Caffeic acid phenethyl ester] |  |  |  |  |  | 700 ± 100 nM |  |  | inhibition at 10 µM ([1]; Toxoplasma gondii, 10 μM, 48 h, HFF cells infected with RH-Fluc (Figure 5B), read-out: reduction in luciferase activity, indicative of T. gondii growth inhibition): 5%; IC50 ([1]; Toxoplasma gondii, parasites in culture, 48 h, pooled, mean ± SD (n = 3) (Table 3)): > 10000 nM; inhibition at 10 µM (MmIMPα/β heterodimer; read-out: % Inhibition of IMPα-NLS Interaction MmIMPα/β): 14%; inhibition at 10 µM (MmΔIBBIMPα; compounds at 10 μM, ΔIBBMmIMPα (5 nM):T-ag-NLS-GFP (30 nM), relative to 1% DMSO control, read-out: % Inhibition of IMPα-NLS Interaction MmΔIBBIMPα): 92%
CC(C)(C)c1ccc(S(=O)(=O)/C=C/C#N)cc1 [Bay 11-7085] | > 50 | ≥ 60 | 2700 ± 700 | 2000 | 9 | 23000 nM and 23400 nM | 31000 | 2000 nM and 1900 nM | CC50 (HFF cells): 8200 ± 700 nM; fold higher IC50 for ΔIBBMmIMPα-NLS compared to PfIMPα-TGS-NLS interaction (MmΔIBBIMPα; selectivity for PfIMPα): ~12 fold; fold lower IC50 for PfIMPα compared to both TgIMPα and MmIMPα (PfIMPα; range over both comparisons): 12-16 fold
